The text below walks through data of article PMC3293837, “Biophysical Property and Broad Anti-HIV Activity of Albuvirtide, a 3-Maleimimidopropionic Acid-Modified Peptide Fusion Inhibitor” (PLoS ONE, 2012).

Each structure is given as a SMILES string. Like-named read-outs stand apart in the source and are kept apart here. Side chains are listed from the residue outwards. Peptide text beside a SMILES is read from it. * marks the point of attachment. Propanoyl(3-maleimido) = O=C1C=CC(=O)N1CCC(=O)*; AEEA = NCCOCCOCC(=O)O

For data set [1] the following is noted: monkeys, intravenous, ref [25], cited from earlier work.
For data set [2] the following is noted: rats, intravenous, ref [25], cited from earlier work.
Data set [3] has as its system HIV-1NL4-3 Q40H pseudovirus. The data set is classed as cell-based.
Procedure: (§1) The mutations were created using double-stranded DNA templates and selection of mutants with DpnI. For each mutation, the two primers contained the desired mutation and occupied the same starting and ending positions on opposite strands of the plasmid DNA. DNA synthesis was carried out by PCR in a 50-µL reaction volume using 1 µL of denatured plasmid template (1 ng/µL), 50 pmol of upper and lower primers and 5 U of high-fidelity thermostable polymerase PrimeStar (Takara, Dalian, China). PCR amplification was carried out for one cycle of denaturation at 98°C for 5 min, then 18 cycles of 98°C for 15 s and 68°C for 15 min, followed a final extension at 72°C for 10 min. The amplicons were treated with the restriction enzyme DpnI for 1 h at 37°C. DpnI-resistant molecules, which were rich in the desired mutants, were recovered by transforming Escherichia coli strain-DH5α to antibiotic resistance. The successful mutations were confirmed by sequencing.
(§2) HIV-1 pseudoviruses were generated as described previously [32], [55]–[56]. Briefly, 293T cells (5×10^6 cells in 15 ml of growth medium in a T-75 culture flask) were cotransfected with 10 µg of an Env-expressing plasmid and 20 µg of a backbone plasmid pSG3deltaEnv that encodes Env-defective, luciferase-expressing HIV-1 genome using Lipofectamine 2000 reagent (Invitrogen). Pseudovirus-containing culture supernatants were harvested 48 hours after transfection and filtered by 0.45-mm pore size, and stored at −80°C in 1-ml aliquots until use. The 50% tissue culture infectious dose (TCID50) of a single thawed aliquot of each pseudovirus batch was determined in TZM-bl cells. […] Briefly, the peptides were prepared with ten series dilutions in a 3-fold stepwise manner and mixed with 100 TCID50 viruses and incubated 1 hour at room temperature. The mixture was added to TZM-bl cells (10^4/well) and incubation at 37°C for 48 hours. Luciferase activity was measured using luciferase assay regents (Promega, Medison, WI) and a Luminescence Counter (Promega) according to the manufacture's instructions.
Data set [4] relates to HIV-1NL4-3 V38M pseudovirus. Type of data set: cell-based.
Procedure: as §2
Data set [5] concerns HIV-1NL4-3 V38A/N42T pseudovirus. The data set is classed as cell-based.
Procedure: as §2
The subject of data set [6] is HIV-1NL4-3 V38A pseudovirus. The data set is classed as cell-based.
Procedure: as §2
The test system of data set [7] is HIV-1NL4-3 N43K pseudovirus. Type of data set: cell-based.
Procedure: as §1, §2
Data set [8] relates to HIV-1NL4-3 I37T pseudovirus. The data set is classed as cell-based.
Procedure: as §2
The test system of data set [9] is HIV-1NL4-3 Env-pseudotyped virus. Type of data set: cell-based.
Procedure: as §2
In data set [10] the test system is HIV-1NL4-3 D36G pseudovirus. The data set is classed as cell-based.
Procedure: as §2
Data set [11] concerns HIV-1NL4-3 D36S/V38M pseudovirus. The data set is classed as cell-based.
Procedure: as §1, §2
The test system of data set [12] is HIV-1NL4-3 I37T/N43K pseudovirus. Type of data set: cell-based.
Procedure: as §1, §2
Setting [13] is: after conjugation with serum albumin.
The mark [14] stands for this setting: value from which half-life was extended by albumin conjugation.

Regarding `CC[C@H](C)[C@H](NC(=O)[C@H](CC(C)C)NC(=O)[C@H](CCC(=O)O)NC(=O)[C@H](Cc1c[nH]cn1)NC(=O)[C@@H](NC(=O)[C@H](CC(C)C)NC(=O)[C@H](CCCCNC(=O)COCCOCCNC(=O)CCN1C(=O)C=CC1=O)NC(=O)[C@@H](NC(=O)[C@H](Cc1ccc(O)cc1)NC(=O)[C@H](CC(N)=O)NC(=O)[C@H](CC(N)=O)NC(=O)[C@@H](NC(=O)[C@H](CCC(=O)O)NC(=O)[C@H](CCCNC(=N)N)NC(=O)[C@H](CC(=O)O)NC(=O)[C@H](Cc1c[nH]c2ccccc12)NC(=O)[C@H](CCC(=O)O)NC(=O)[C@H](CCC(=O)O)NC(=O)[C@H](Cc1c[nH]c2ccccc12)NC(C)=O)[C@@H](C)CC)[C@@H](C)O)[C@@H](C)CC)C(=O)N[C@@H](CCC(=O)O)C(=O)N[C@@H](CCC(=O)O)C(=O)N[C@@H](CO)C(=O)N[C@@H](CCC(N)=O)C(=O)N[C@@H](CC(N)=O)C(=O)N[C@@H](CCC(N)=O)C(=O)N[C@@H](CCC(N)=O)C(=O)N[C@@H](CCC(=O)O)C(=O)N[C@@H](CCCCN)C(=O)N[C@@H](CC(N)=O)C(=O)N[C@@H](CCC(=O)O)C(=O)N[C@@H](CCC(N)=O)C(=O)N[C@@H](CCC(=O)O)C(=O)N[C@@H](CC(C)C)C(=O)N[C@@H](CC(C)C)C(N)=O` [ABT] (Ac-WEEWDREINNYTK([AEEA-Propanoyl(3-maleimido)])LIHELIEESQNQQEKNEQELL-NH2), the “in vivo half-life (extended, 'to')” value is recorded as 102.4 h in data set [1] (setting [13]) and 25.8 h in data set [2] (setting [13]). Also, the “in vivo half-life (before extension, 'from')” value in [1] (setting [14]) is 10.89 h; in [2] (setting [14]), 1.67 h.

As for `Cc1cn([C@H]2C[C@H](N=[N+]=[N-])[C@@H](CO)O2)c(=O)[nH]c1=O` [AZT], the half-inhibitory concentration (IC50) in data set [3] (HIV-1NL4-3 Q40H, TZM-bl, 48 h, mean ± SD of three independent experiments) is 33.2 ± 7.2 nM; in data set [4] (HIV-1NL4-3 V38M, TZM-bl, 48 h, mean ± SD of three independent experiments), 47.8 ± 3.7 nM; in data set [5] (HIV-1NL4-3 V38A/N42T, TZM-bl, 48 h, mean ± SD of three independent experiments), 38.1 ± 3.7 nM; in data set [6] (HIV-1NL4-3 V38A, TZM-bl, 48 h, mean ± SD of three independent experiments), 42.3 ± 9 nM; in [7] (HIV-1NL4-3 N43K, TZM-bl, 48 h, mean ± SD of three independent experiments) it was 153 ± 7.4 nM; in [8] (HIV-1NL4-3 I37T, TZM-bl, 48 h, mean ± SD of three independent experiments), 93.5 ± 13.5 nM. Also, the concentration for half-maximal inhibition (IC50) was found to be 107 ± 23.2 nM in data set [9] (HIV-1NL4-3 WT pseudovirus, Table 3, TZM-bl, 48 h, mean ± SD of three independent experiments, read-out: IC50); 59.4 ± 5.9 nM in data set [10] (HIV-1NL4-3 D36G, TZM-bl, 48 h, mean ± SD of three independent experiments); 40.3 ± 8.6 nM in data set [11] (HIV-1NL4-3 D36S/V38M, TZM-bl, 48 h, mean ± SD of three independent experiments); 139 ± 14.9 nM in [12] (HIV-1NL4-3 I37T/N43K, TZM-bl, 48 h, mean ± SD of three independent experiments). Besides, the “Fold change (in parentheses)” value is listed as 0.6 in data set [3] (Q40H, reference D36G); 0.8 in [4] (V38M, reference D36G); 0.6 in data set [5] (V38A/N42T, reference D36G); 0.7 in [6] (V38A, reference D36G); 2.6 in data set [7] (N43K, reference D36G); 1.6 in [8] (I37T, reference D36G). The “Fold change (in parentheses)” value in [9] (WT, reference D36G) is on record as 1.8; in [10] (D36G, reference D36G), 1.0; in [11] (D36S/V38M, reference D36G) it was 0.7; in data set [12] (I37T/N43K, reference D36G) it was 2.3. Besides, the Fold change in [3] (Q40H, reference wild-type) worked out at 0.3; in [4] (V38M, reference wild-type), 0.5; in data set [5] (V38A/N42T, reference wild-type) it was 0.4; in data set [6] (V38A, reference wild-type), 0.4; in data set [7] (N43K, reference wild-type), 1.4; in [8] (I37T, reference wild-type) it was 0.9. Also, the Fold change is given as 1.0 in [9] (WT, reference wild-type); 0.6 in data set [10] (D36G, reference wild-type); 0.4 in [11] (D36S/V38M, reference wild-type); 1.3 in [12] (I37T/N43K, reference wild-type).
